Results published in article PMC4071569, “Investigation of Indolglyoxamide and Indolacetamide Analogues of Polyamines as Antimalarial and Antitrypanosomal Agents” (Marine Drugs, 2014).
Read-outs that look alike come from different tables or passages of the source.

Key:
[1] = system: Trypanosoma brucei rhodesiense, STIB 900 strain, trypomastigotes stage; design: method as in PMID 21348447; conditions: data taken from ref 24, read-out: IC50 T. b. rhod.; cited from earlier work
[2] = system: Plasmodium falciparum, K1 strain, IEF stage; conditions: cited from earlier work; for Pf SI (selectivity index for P. falciparum = IC50 L6/IC50 Pf): K1 strain vs L6
[3] = system: L6 rat skeletal myoblast cell line; design: method as in PMID 21348447; conditions: data taken from ref 24; cited from earlier work
[4] = system: Trypanosoma brucei rhodesiense, STIB 900 strain, trypomastigotes stage; assay: In vitro anti-trypanosomal activity (growth inhibition); type: cell-based; conditions: STIB 900 strain, trypomastigotes, average of two independent assays, read-out: IC50 T. b. rhod.
Description: (§1) The in vitro activities against the protozoan parasites T.b. rhodesiense, and P. falciparum and cytotoxicity assessment against L6 cells were determined as reported elsewhere.

[5] = system: Plasmodium falciparum, NF54 strain, IEF stage; assay: In vitro antimalarial activity, NF54 drug sensitive strain; type: cell-based; conditions: for IC50: NF54 strain, IEF stage, average of two independent assays, read-out: IC50 P. falc.; for Pf SI (selectivity index for P. falciparum = IC50 L6/IC50 Pf): NF54 strain vs L6
Description: as §1

[6] = system: L6 rat skeletal myoblast cell line; assay: Cytotoxicity towards L6 cells; type: cell-based; conditions: L6 rat skeletal myoblast cell line; average of two independent assays; read-out: IC50 L6
Description: as §1

[7] = system: GFP-transfected P. berghei strain ANKA; assay: In vivo anti-malarial efficacy in P. berghei infected mice; design: species or system Plasmodium berghei; conditions: repeated ip dose of 50 (mg/kg)/day for four days
Description: Analogue 20 was selected for in vivo evaluation in Plasmodium berghei infected mice. […] No increase in mean survival time was observed.
In vivo anti-malarial activity was assessed as previously described. Groups of three female NMRI mice (20–22 g) were intravenously infected with 2 × 10^7 parasitized erythrocytes on day 0 with GFP-transfected P. berghei strain ANKA [32]. Compounds were formulated in 100% DMSO, diluted 10-fold in distilled water and administered intraperitoneally in a volume of 10 mL·kg^−1 on four consecutive days (4, 24, 48 and 72 h post infection). Parasitemia was determined on day 4 post infection (24 h after last treatment) by FACS analysis. Activity was calculated as the difference between the mean per cent parasitaemia for the control (n = 5 mice) and treated groups expressed as a per cent relative to the control group. The survival of the animals was usually monitored up to 30 days: a compound was considered curative if the animal survived to day 30 after infection with no detectable parasites. In vivo efficacy studies in mice were conducted according to the rules and regulations for the protection of animal rights (“Tierschutzverordnung”) of the Swiss “Bundesamt für Veterinärwesen”. They were approved by the veterinary office of Canton Basel-Stadt, Switzerland.

[8] = K1 strain, IEF stage, data taken from ref 24, read-out: IC50 P. falc.

Compound | IC50 ([4]; Trypanosoma brucei) [µM] | IC50 ([5]; Plasmodium falciparum) [µM] | IC50 [6] [µM] | Pf SI (selectivity index for P. falciparum = IC50 L6/IC50 Pf) [5] | further results
NCCCCNCCCNC(=O)C(=O)c1c[nH]c2ccccc12 [Compound 2, didemnidine A] |  |  |  |  | IC50 [1]: 59 µM; Pf SI (selectivity index for P. falciparum = IC50 L6/IC50 Pf) ([2]; data taken from ref 24): 0.59; IC50 [2, 8]: 41 µM; IC50 [3]: 24 µM
NCCCCNCCCNC(=O)C(=O)c1c[nH]c2cc(Br)ccc12 [Compound 3, didemnidine B] |  |  |  |  | IC50 [1]: 44 µM; Pf SI (selectivity index for P. falciparum = IC50 L6/IC50 Pf) ([2]; data taken from ref 24): 1.7; IC50 [2, 8]: 15 µM; IC50 [3]: 25 µM
CC(C)(C)OC(=O)NCCCCNCCCNC(=O)C(=O)c1c[nH]c2cc(Br)ccc12 [Compound 4] |  |  |  |  | IC50 [1]: 9.9 µM; Pf SI (selectivity index for P. falciparum = IC50 L6/IC50 Pf) ([2]; data taken from ref 24): 3.0; IC50 [2, 8]: 8.4 µM; IC50 [3]: 25 µM
COc1cccc2c(C(=O)C(=O)NCCCN(CCCCCCCCN(CCCNC(=O)C(=O)c3c[nH]c4c(OC)cccc34)C(=O)OC(C)(C)C)C(=O)OC(C)(C)C)c[nH]c12 [Compound 20, Di-tert-butyl Octane-1,8-diylbis((3-(2-(7-methoxy-1H-indol-3-yl)-2-oxoacetamido)propyl)carbamate)] | 61 | 0.092 | ≥ 120 | ≥1300 | increase in mean survival time [7]: No increase; reduction in parasitaemia ([7]; parasitemia on day 4 post infection): 20.9%
COc1cc(CC(=O)NCCCNCCCCNCCCNC(=O)Cc2ccc(O)c(OC)c2)ccc1O [orthidine F, reference compound] |  |  |  |  | IC50 ([2]; K1 dual drug-resistant strain, read-out: IC50 antimalarial potency (P. falciparum)): 0.89 µM
N^1,N^4-Bis(3-(2-(7-methoxy-1H-indol-3-yl)acetamido)propyl)butane-1,4-diaminium 2,2,2-trifluoroacetate [Compound 16] |  |  | 62 | 48 | IC50 [4]: 45 µM; IC50 [5]: 1.3 µM

More lines, main results first:

IC50 ([4]; Trypanosoma brucei) [µM] | IC50 ([5]; Plasmodium falciparum) [µM] | Compound | IC50 [6] [µM] | Pf SI (selectivity index for P. falciparum = IC50 L6/IC50 Pf) [5] | further results
6.1 | 0.14 | COc1ccc2c(C(=O)C(=O)NCCCN(CCCCCCCCN(CCCNC(=O)C(=O)c3c[nH]c4cc(OC)ccc34)C(=O)OC(C)(C)C)C(=O)OC(C)(C)C)c[nH]c2c1 [Compound 19, Di-tert-butyl Octane-1,8-diylbis((3-(2-(6-methoxy-1H-indol-3-yl)-2-oxoacetamido)propyl)carbamate)] | ≥ 120 |  | melting point: 92 °C
0.27 | 0.2 | COc1ccc2[nH]cc(C(=O)C(=O)NCCCNCCCCCCCCCCCCNCCCNC(=O)C(=O)c3c[nH]c4ccc(OC)cc34)c2c1.O=C(O)C(F)(F)F.O=C(O)C(F)(F)F [Compound 30, N^1,N^12-Bis(3-(2-(5-methoxy-1H-indol-3-yl)-2-oxoacetamido)propyl)dodecane-1,12-diaminium 2,2,2-trifluoroacetate] | 17 | 85 | 
0.18 | 0.24 | COc1ccc2c(C(=O)C(=O)NCCCNCCCCCCCCCCCCNCCCNC(=O)C(=O)c3c[nH]c4cc(OC)ccc34)c[nH]c2c1.O=C(O)C(F)(F)F.O=C(O)C(F)(F)F [Compound 31, N^1,N^12-Bis(3-(2-(6-methoxy-1H-indol-3-yl)-2-oxoacetamido)propyl)dodecane-1,12-diaminium 2,2,2-trifluoroacetate] | 6 | 25 | 
0.26 | 0.01 | COc1cccc2c(C(=O)C(=O)NCCCNCCCCCCCCCCCCNCCCNC(=O)C(=O)c3c[nH]c4c(OC)cccc34)c[nH]c12.O=C(O)C(F)(F)F.O=C(O)C(F)(F)F [Compound 32, N^1,N^12-Bis(3-(2-(7-methoxy-1H-indol-3-yl)-2-oxoacetamido)propyl)dodecane-1,12-diaminium 2,2,2-trifluoroacetate] | 2.1 | 210 | 
7.1 | 0.16 | CC(C)(C)OC(=O)N(CCCCN(CCCNC(=O)Cc1c[nH]c2ccccc12)C(=O)OC(C)(C)C)CCCNC(=O)Cc1c[nH]c2ccccc12 [Compound 33, Di-tert-butyl Butane-1,4-diylbis((3-(2-(1H-indol-3-yl)acetamido)propyl)carbamate)] | 19 | 120 | 
75 | 0.18 | O=C(Cc1c[nH]c2ccccc12)NCCCNCCCCNCCCNC(=O)Cc1c[nH]c2ccccc12.O=C(O)C(F)(F)F.O=C(O)C(F)(F)F [Compound 36, N^1,N^4-Bis(3-(2-(1H-indol-3-yl)acetamido)propyl)butane-1,4-diaminium 2,2,2-trifluoroacetate] | 74 | 410 | 
